Patent US9457033B2, “Steroid alkaloids and uses thereof as antimicrobial agents against electron transport-deficient microbes and as potentiators for antimicrobial agents against pathogenic bacteria” (priority 2011, dated 2016)
Read-outs that look alike come from different tables or passages of the source.

Assays:
[1] = system: S. aureus ATCC 29213; test: Time-kill experiments, aminoglycoside alone or with tomatidine (FIGS. 8-10)
[2] = system: S. aureus MA078038; test: MIC, microdilution in CAMHB 24 h; type: cell-based, Staphylococcus aureus; settings: for MIC: Staphylococcus aureus
[3] = system: S. aureus ATCC 29213; test: MIC, microdilution in CAMHB 24 h, with or without tomatidine/compound; type: cell-based, Staphylococcus aureus; settings: for MIC: Staphylococcus aureus
[4] = system: S. aureus CF6B-L; test: MIC, microdilution in CAMHB 24 h; type: cell-based, Staphylococcus aureus; settings: CF6B-L; for MIC: Staphylococcus aureus, CF6BL
[5] = system: S. aureus CF7A-L; test: MIC, microdilution in CAMHB 24 h; type: cell-based, Staphylococcus aureus; settings: CF7A-L; for MIC: Staphylococcus aureus
[6] = system: S. aureus Mu50; test: MIC, microdilution in CAMHB 24 h; type: cell-based, Staphylococcus aureus; settings: for MIC: Staphylococcus aureus
[7] = system: S. aureus N315; test: microbe, parasite or virus in culture; type: cell-based, Staphylococcus aureus; settings: for MIC: Staphylococcus aureus
[8] = system: S. aureus ATCC 43300; test: MIC, microdilution in CAMHB 24 h; type: cell-based, Staphylococcus aureus; settings: ATCC 43300; for MIC: Staphylococcus aureus
[9] = system: S. aureus CF07-L; test: MIC, microdilution in CAMHB 24 h; type: cell-based, Staphylococcus aureus; settings: CF07-L; for MIC: Staphylococcus aureus, CF07L
[10] = system: S. aureus CF9A-L; test: MIC, microdilution in CAMHB 24 h; type: cell-based, Staphylococcus aureus; settings: CF9A-L; for MIC: Staphylococcus aureus
[11] = system: S. aureus Newman; test: MIC, microdilution in CAMHB 24 h; type: cell-based, Staphylococcus aureus; settings: Newman; for MIC: Staphylococcus aureus
[12] = system: S. aureus SHY97-3906; test: MIC, microdilution in CAMHB 24 h; type: cell-based, Staphylococcus aureus; settings: for MIC: Staphylococcus aureus, SHY973906
[13] = system: S. aureus CF4B-L; test: MIC, microdilution in CAMHB 24 h; type: cell-based, Staphylococcus aureus; settings: CF4B-L; for MIC: Staphylococcus aureus, CF4BL
[14] = system: S. aureus Sa220c; test: MIC, microdilution in CAMHB 24 h; type: cell-based, Staphylococcus aureus; settings: Sa220c; for MIC: Staphylococcus aureus
[15] = system: S. aureus CF35A-L; test: MIC, microdilution in CAMHB 24 h; type: cell-based, Staphylococcus aureus; settings: CF35A-L; for MIC: Staphylococcus aureus
[16] = system: S. aureus MRSA COL; test: MIC, microdilution in CAMHB 24 h; type: cell-based, Staphylococcus aureus; settings: MRSA COL; for MIC: Staphylococcus aureus
[17] = system: S. aureus ATCC 29213; test: Checkerboard assay, aminoglycoside and tomatidine; type: cell-based, Staphylococcus aureus; settings: for MIC: Staphylococcus aureus, ATCC29213, checkerboard
Description: This checkerboard protocol (Eliopoulos and Moellering, 1996) was conducted by a microdilution method similar to that use for standard MICs determination. In 96 wells plates, antibiotics were loaded at a 4× concentration (where X is the maximal tested concentration) in well A1 and at a 2× concentration in the others wells of the column 1. Antibiotics were serially diluted 1:1 from the column 2 to column 10. […] Wells A12, B12, […] are positive untreated controls whereas wells […] are negative non-inoculated controls. […] The FIC index was calculated as follow (Eliopoulos and Moellering, 1996): FIC […]/MICB, where A and B are MICs of compounds A and B in combination and where MICA and MICB are the MICs of compound A alone and of compound B alone, respectively, and FICA and FICB are the FICs of compound A and of compound B, respectively.

[18] = system: S. aureus CF1A-L; test: MIC, microdilution in CAMHB 24 h; type: cell-based, Staphylococcus aureus; settings: CF1A-L; for MIC: Staphylococcus aureus, CF1AL
[19] = Human (CF lungs), read-out: MIC
[20] = Human (CF lungs), MRSA, read-out: MIC
[21] = 8 μg/ml of tomatidine, read-out: MIC +TO
[22] = absence of tomatidine, read-out: MIC −TO

C[C@H]1CC[C@]2(NC1)O[C@H]1C[C@H]3[C@@H]4CC[C@H]5C[C@@H](O)CC[C@]5(C)[C@H]4CC[C@]3(C)[C@H]1[C@@H]2C [Tomatidine, tomatidine]
significantly decrease: number of CFU recovered ([1]; cultures exposed to gentamicin 0.5 to 4 μg/ml for 24 h, with 8 μg/ml tomatidine, FIG. 10)
significantly reduced the emergence: emergence of resistant CFU ([1]; combination of tomatidine (8 μg/ml) and gentamicin, FIG. 10)
markedly reduced the regrowth: regrowth of bacteria exposed to gentamicin or tobramycin ([1]; tomatidine at 8 μg/ml with aminoglycoside 1 μg/ml, 24 h, FIG. 9)

NC[C@H]1O[C@H](O[C@H]2[C@H](O)[C@@H](O[C@H]3O[C@H](CO)[C@@H](O)[C@H](N)[C@H]3O)[C@H](N)C[C@@H]2N)[C@H](O)[C@@H](O)[C@@H]1O [Kanamycin, kanamycin]
1-2 fold: Fold (−TO/+TO) ([10]; 8 μg/ml of tomatidine)
>2-4 fold: Fold (−TO/+TO) ([6]; Mu50, 8 μg/ml of tomatidine)
64 µg/mL: MIC ([7]; N315, read-out: MIC +TO)
2 µg/mL: MIC ([12]; SHY97-3906, Cow (mastitis), read-out: MIC) | MIC ([12]; SHY-3906, absence of tomatidine, read-out: MIC −TO) | MIC ([17]; tomatidine 0.06 μg/ml)
128 to 256 µg/mL: MIC ([4]; aac(6′)-aph(2″), 8 μg/ml of tomatidine, read-out: MIC +TO) | MIC ([10]; CF9AL, ant(4′)-Ia, 8 μg/ml of tomatidine, read-out: MIC +TO)
1 µg/mL: MIC ([15]; CF35AL, 8 μg/ml of tomatidine, read-out: MIC +TO)
0.5 to 1 µg/mL: MIC [9, 21] | MIC ([17]; tomatidine 0.12 μg/ml) | MIC ([17]; tomatidine 1 μg/ml)
1020 µg/mL: MIC ([2]; MA078038, aph(3′)-IIIa, 8 μg/ml of tomatidine, read-out: MIC +TO) | MIC ([4]; aac(6′)-aph(2″), absence of tomatidine, read-out: MIC −TO) | MIC [4, 19]
8 fold: Fold (−TO/+TO) ([11]; 8 μg/ml of tomatidine) | Fold (−TO/+TO) ([13]; 8 μg/ml of tomatidine) | Fold (−TO/+TO) ([14]; 8 μg/ml of tomatidine) | Fold (−TO/+TO) ([16]; 8 μg/ml of tomatidine) | Fold (−TO/+TO) ([18]; 8 μg/ml of tomatidine)
4-8 fold: Fold (−TO/+TO) ([3]; ATCC 29123, 8 μg/ml of tomatidine) | Fold (−TO/+TO) ([3]; ATCC 29213, tomatidine at 8 μg/ml) | Fold (−TO/+TO) ([4]; 8 μg/ml of tomatidine) | Fold (−TO/+TO) ([9]; 8 μg/ml of tomatidine)
2 to 4 µg/mL: MIC ([3]; ATCC 29123 / ATCC 29213, ATCC 29123, absence of tomatidine, read-out: MIC −TO) | MIC ([3]; ATCC29213, ATCC 29213, Human (SSTI), read-out: MIC) | MIC ([3]; ATCC29213, ATCC 29213, absence of tomatidine, read-out: MIC −TO) | MIC ([17]; tomatidine 0 μg/ml)
4 µg/mL: MIC [9, 19] | MIC [9, 22] | MIC ([11]; Human (Osteo), read-out: MIC) | MIC [11, 22] | MIC [13, 19] | MIC [13, 22] | MIC ([14]; Human (SSTI), MRSA, read-out: MIC) | MIC [14, 22] | MIC ([15]; CF35AL, absence of tomatidine, read-out: MIC −TO) | MIC [15, 20] | MIC ([16]; Human (SSTI), read-out: MIC) | MIC [16, 22] | MIC [18, 19] | MIC [18, 22]
0.25 to 0.5 µg/mL: MIC ([17]; tomatidine 2 μg/ml)
2-4 fold: Fold (−TO/+TO) ([5]; 8 μg/ml of tomatidine) | Fold (−TO/+TO) ([8]; 8 μg/ml of tomatidine)
0.5 µg/mL: MIC ([3]; ATCC 29123 / ATCC 29213, ATCC 29123, 8 μg/ml of tomatidine, read-out: MIC +TO) | MIC ([3]; ATCC29213, ATCC 29213, presence of tomatidine at 8 μg/ml, read-out: MIC +TO) | MIC [11, 21] | MIC ([12]; SHY-3906, 8 μg/ml of tomatidine, read-out: MIC +TO) | MIC [13, 21] | MIC [14, 21] | MIC [16, 21] | MIC ([17]; tomatidine 0.25 μg/ml) | MIC ([17]; tomatidine 0.5 μg/ml) | MIC ([17]; tomatidine 4 μg/ml) | MIC ([17]; tomatidine 8 μg/ml) | MIC [18, 21]
> 1020 µg/mL: MIC ([2]; MA078038, aph(3′)-IIIa, absence of tomatidine, read-out: MIC −TO) | MIC ([2]; MA078038, Human (CA), MRSA, read-out: MIC) | MIC ([6]; Mu50, aac(6′)-aph(2″), ant(4′)-Ia, absence of tomatidine, read-out: MIC −TO) | MIC ([6]; Mu50, Human (SSTI), MRSA, VISA, read-out: MIC)
>1 fold: Fold (−TO/+TO) ([2]; MA078038, 8 μg/ml of tomatidine)
256 to 512 µg/mL: MIC ([5]; CF7AL, ant(4′)-Ia, absence of tomatidine, read-out: MIC −TO) | MIC [5, 20] | MIC ([6]; Mu50, aac(6′)-aph(2″), ant(4′)-Ia, 8 μg/ml of tomatidine, read-out: MIC +TO)
256 µg/mL: MIC ([7]; N315, read-out: MIC −TO) | MIC ([8]; ATCC43300, 8 μg/ml of tomatidine, read-out: MIC +TO) | MIC ([10]; CF9AL, ant(4′)-Ia, absence of tomatidine, read-out: MIC −TO) | MIC [10, 20]
64 to 256 µg/mL: MIC ([5]; CF7AL, ant(4′)-Ia, 8 μg/ml of tomatidine, read-out: MIC +TO)
512 to 1020 µg/mL: MIC ([8]; ATCC 43300 / MRSA, Human (HA), MRSA, read-out: MIC) | MIC ([8]; ATCC43300, absence of tomatidine, read-out: MIC −TO)
4 fold: Fold (−TO/+TO) ([7]; N315, 8 μg/ml of tomatidine) | Fold (−TO/+TO) ([12]; SHY-3906, 8 μg/ml of tomatidine) | Fold (−TO/+TO) ([15]; 8 μg/ml of tomatidine)
≦0.193: FIC index ([17]; aminoglycoside with tomatidine, tomatidine MIC considered 32 μg/ml, values overestimated)
